Type in all cases: in vivo, commercial broiler chicks
Holding throughout (details): gut of DOH chicks, n = 12, ± Std Err

The test system of test [1] is Gram-negative bacteria. Kind of test: Gut counts of day of hatch chicks: Gram-negative bacteria on MacConkey's agar.
The test system of test [2] is presumptive Lactic Acid Bacteria (LAB). Kind of test: Gut counts of day of hatch chicks: presumptive LAB on MRS agar.
In test [3] the test system is thermotolerant spores. Kind of test: Gut counts of day of hatch chicks: thermotolerant spores on TSA. The method, then:
Guts from chicks treated with either the bacterial formulation of example 3 or formaldehyde were tested for thermotolerant spores, presumptive Lactic Acid Bacteria (LAB) and Gram-negative bacteria.
Directly prior to chick removal from the hatchers twelve birds per treatment group were removed from the hatcher. Birds were transported (˜1 h) to an appropriate research facility and humanely euthanized by CO2 asphyxiation. Gut packs containing duodenum, ileum, and ceca were aseptically removed and separately homogenized. Gut samples were diluted in sterile saline at a 1:4 wt/vol rate. Ten-fold dilutions were made by placing 200 μl of the sample (N) into the first row of a sterile 96-well plate and sequentially diluting by transferring 20 μl to 180 μl sterile saline to the 10^−7 dilution. The dilutions (N to 10^−7) were plated by 10 μl drop onto both MRS agar and MacConkey's agar. For Trypticase soy agar (TSA) plating, the gut samples were Pasteurized at 80° C. for 10 min before transferring 200 μl into a 96 well plate. The rest of the dilutions and plating methods were the same as the MRS and MacConkey's agar. Agar plates were counted after 24 h of incubation at 37° C.

Consider `C=O` [Formaldehyde], for which the “presumptive Gram-negative bacteria counts, MacConkey's agar, Exp 1” value in test [1] (Exp 1) was found to be 8.39 ± 0.19 Log10 CFU/g. The “presumptive Gram-negative bacteria counts, MacConkey's agar, Exp 2” value in test [1] (Exp 2) is listed as 6.56 ± 0.83 Log10 CFU/g. Also, the “presumptive Gram-negative bacteria counts, MacConkey's agar, Exp 3” value in test [1] (Exp 3) turned out to be 3.9 ± 0.93 Log10 CFU/g. Further, the “presumptive Gram-negative bacteria counts, MacConkey's agar, Exp 4” value in test [1] (Exp 4) amounted to 4.95 ± 0.99 Log10 CFU/g. The “presumptive Gram-negative bacteria counts, MacConkey's agar, Exp 5” value in test [1] (Exp 5) is on record as 2.84 ± 0.92 Log10 CFU/g. The “presumptive Lactic Acid bacteria counts, MRS agar, Exp 1” value in test [2] (Exp 1) was determined as 7.79 ± 0.17 Log10 CFU/g. For the same molecule, in test [2] (Exp 2), the “presumptive Lactic Acid bacteria counts, MRS agar, Exp 2” value turned out to be 7.26 ± 0.34 Log10 CFU/g. The “presumptive Lactic Acid bacteria counts, MRS agar, Exp 3” value in test [2] (Exp 3) came out at 6.26 ± 0.83 Log10 CFU/g. The “presumptive Lactic Acid bacteria counts, MRS agar, Exp 4” value in test [2] (Exp 4) stood at 5.1 ± 0.99 Log10 CFU/g. Moreover, in test [2] (Exp 5), the “presumptive Lactic Acid bacteria counts, MRS agar, Exp 5” value stood at 2.85 ± 0.96 Log10 CFU/g. Also, the “thermotolerant spore counts, TSA, Exp 1” value in test [3] (Exp 1, samples not pasteurized) is recorded as 8.95 ± 0.2 Log10 CFU/g. The “thermotolerant spore counts, TSA, Exp 2” value in test [3] (Exp 2, pasteurized) is 1.34 ± 0.48 Log10 CFU/g. Moreover, the “thermotolerant spore counts, TSA, Exp 3” value in test [3] (Exp 3, pasteurized) amounted to 0.69 ± 0.36 Log10 CFU/g. The “thermotolerant spore counts, TSA, Exp 4” value in test [3] (Exp 4, pasteurized) was 0.44 ± 0.3 Log10 CFU/g. In addition, the “thermotolerant spore counts, TSA, Exp 5” value in test [3] (Exp 5, pasteurized) is 0 ± 0 Log10 CFU/g.

Values taken from patent publication US11395479B2, “Method to reduce microbial bloom in poultry hatchery” (Novozymes A/S, priority 2016, dated 2022).
